Consider 19 compounds from patent publication US20240092745A1, “DRUGS AND COMPOSITIONS FOR THE TREATMENT OF OCULAR DISORDERS” (Graybug Vision, Inc., priority 2017, published 2024).

As a reminder, the solubility is how much of the substance goes into solution per volume.

Values after ≈ are worked out from the molar mass of the structure shown. “Also recorded” adds a separate entry of the source. Where a name gives a salt, the structure may show the parent alone. Read-outs that look alike come from different tables or passages of the source.

Data set [1] in a line: In vitro stability of prodrugs (degradation to parent, RP-HPLC). To be noted: 37° C. The data set is classed as physicochemical. The protocol: Prodrugs of interest were dissolved in PBS (pH 7) containing 10% DMSO (v/v) at a concentration of 0.1 mg/mL. The samples were incubated at 37° C. or 50° C. to simulate physiological and accelerated degradation conditions, respectively. At various time points, 500 μL of the solution was collected, filtered through a 0.2 μm nylon syringe filter and analyzed by RP-HPLC.
Timolol-Dorzolamide bi-functional prodrugs were dissolved in a mixture of DMSO and PBS and incubated at 37° C. The solution was aliquoted and analyzed by HPLC at pre-determined time points. Timolol-Dorzolamide bi-functional prodrugs were stable for about 3 hours as evidenced by the significant reduction of prodrug peaks in HPLC after 2-3 hours (FIG. 30A and FIG. 30B). Timolol parent drug was detected as the bi-functional prodrug degraded, whereas Dorzolamide appeared in the form of prodrugs, i.e., Dorzolamide linked with 1-3 PLA units.

The nature of data set [2]: Determination of drug solubility in aqueous and organic solvent.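 On all read-outs here: solid drug suspended at 50 mg/mL nominal in each solvent, vortexed and sonicated, then dissolved concentration in filtered supernatant quantified by HPLC against a calibration curve.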 The data set is classed as physicochemical. To be noted: for solubility: thermodynamic from solid.
Protocol: For each test, approximately 5-10 mg was transferred to a 10 mL glass vial. Aqueous or organic solvent was added to each vial to achieve an overall concentration of 50 mg/mL. After vortexing aggressively for 2-3 minutes and sonicating in a bath sonicator for 5 minutes, undissolved drug was spun down at 1200 rpm for 5 minutes to generate a pellet. The supernatant was collected and filtered through a 0.2 μm nylon syringe filter into HPLC vials for drug content analysis. Drug concentration was determined by comparing against a standard calibration curve.
The mark [3] stands for this setting: organic solvent or mixture, Table 3A, DMSO, read-out: Solubility DMSO.
Where [4] appears, read: Table 3A, water, drug added to 50 mg/mL, read-out: Solubility Water.
Setting [5] is: Table 3B, water, drug added to 50 mg/mL.
[6] abbreviates: organic solvent or mixture, Table 3B, DMSO, read-out: Solubility DMSO.
Setting [7] is: Table 3B, water, drug added to 50 mg/mL, read-out: Solubility Water.

Take `CCN[C@H]1C[C@H](C)S(=O)(=O)c2sc(S(=O)(=O)NC(=O)[C@H](C)OC(=O)[C@H](C)OC(=O)[C@H](C)OC(=O)CCCC(=O)O[C@@H](CNC(C)(C)C)COc3nsnc3N3CCOCC3)cc21` [Compound 64-4, Timolol-O-glutarate-PLA(n=3)-Dorzolamide maleate salt]: the “time in which prodrug cleaves to afford the active moieties” value in data set [1] is listed as “less than 5 hours”.
For `CCCCCCCCCCCCCCCCCC(=O)O[C@@H](C)C(=O)O[C@@H](C)C(=O)O[C@@H](C)C(=O)O[C@@H](C)C(=O)N1CCN=C1Nc1ccc2nccnc2c1Br` [Compound 29-2, Octadecanoic acid (S)-1-[(S)-1-((S)-1-{(S)-2-[2-(5-bromo-quinoxalin-6-ylamino)-4,5-dihydro-imidazol-1-yl]-1-methyl-2-oxo-ethoxycarbonyl}-ethoxycarbonyl)-ethoxycarbonyl]-ethyl ester], the results for the solubility in data set [2] (setting [3]) and in data set [2] (setting [4]) were more than 50 mg/mL and less than 1 mg/mL, respectively.
Take “Timolol-Bis-Acetyl-PLA (n = 4) [Compound 119-1]”: the “Solubility DMSO” value in data set [2] (Table 3B, DMSO) is reported as more than 50 mg/mL. Also, the “Solubility Water” value in data set [2] (setting [5]) was less than 0.00005 mg/mL.
As to `CC(=O)O[C@@H](C)C(=O)O[C@@H](C)C(=O)O[C@@H](C)C(=O)O[C@@H](C)C(=O)N1CCN=C1Nc1ccc2nccnc2c1Br` [Compound 27-2, (S)-2-[(S)-2-((S)-2-Acetoxy-propionyloxy)-propionyloxy]-propionic acid (S)-2-[2-(5-bromo-quinoxalin-6-ylamino)-4,5-dihydro-imidazol-1-yl]-1-methyl-2-oxo-ethyl ester], the solubility in data set [2] (setting [3]) was more than 50 mg/mL; in data set [2] (setting [4]) it was less than 1 mg/mL.
`CC/C=C\C/C=C\C/C=C\C/C=C\C/C=C\C/C=C\CCC(=O)O[C@@H](CNC(C)(C)C)COc1nsnc1N1CCOCC1.O=C(O)/C=C\C(=O)O` [Compound 53-3, (4Z,7Z,10Z,13Z,16Z,19Z)-Docosa-4,7,10,13,16,19-hexaenoic acid (S)-1-(tert-butylamino-methyl)-2-(4-morpholin-4-yl-[1,2,5]thiadiazol-3-yloxy)-ethylester maleate]: the solubility in data set [2] (setting [6]) was more than 100 mg/mL; in data set [2] (setting [7]), less than 1 mg/mL.
As to `CCCCCCCCCCCCCCCCCC(=O)O[C@@H](C)C(=O)O[C@@H](C)C(=O)O[C@@H](C)C(=O)O[C@@H](C)C(=O)NS(=O)(=O)c1cc2c(s1)S(=O)(=O)N(CCCOC)CC2NCC` (stereo partly drawn) [Compound 15-2, Octadecanoic acid (S)-1-[(S)-1-((S)-1-{(S)-2-[4-ethylamino-2-(3-methoxy-propyl)-1,1-dioxo-1,2,3,4-tetrahydro-1λ*6*-thieno[3,2-e][1,2]thiazine-6-sulfonylamino]-1-methyl-2-oxo-ethoxycarbonyl}-ethoxycarbonyl)-ethoxycarbonyl]-ethyl ester], the solubility is more than 50 mg/mL in data set [2] (setting [3]) and less than 1 mg/mL in data set [2] (setting [4]).
In the case of `CC/C=C\C/C=C\C/C=C\C/C=C\C/C=C\C/C=C\CCC(=O)O[C@H](COc1nsnc1N1CCOCC1)CN(C(C)=O)C(C)(C)C` [Compound 68-1, N-Acyl-Timolol-DHA], the solubility in data set [2] (setting [6]) was more than 100 mg/mL; in data set [2] (setting [7]), less than 1 mg/mL.
Take `CCCCCCCCCCCCCCCCCC(=O)O[C@@H](C)C(=O)O[C@@H](C)C(=O)O[C@@H](C)C(=O)O[C@@H](C)C(=O)O[C@H](COc1nsnc1N1CCOCC1)CN(C(C)=O)C(C)(C)C` [Compound 67-1, N-Acyl-Timolol-PLA (n = 4) Stearate]: the solubility in data set [2] (setting [6]) was 70 mg/mL (≈ 76.7 mM); in data set [2] (setting [7]) it was less than 1 mg/mL.
In the case of `CC(C)(C)NC[C@@H](COc1nsnc1N1CCOCC1)OC(=O)CCC(=O)O[C@@H](CNC(C)(C)C)COc1nsnc1N1CCOCC1.O=C(O)/C=C\C(=O)O` [Compound 76-4, Timolol-succinic acid-Timolol-maleate], the solubility in data set [2] (setting [6]) was more than 100 mg/mL; in data set [2] (setting [7]) it was more than 6.25 mg/mL.
For the compound `CC/C=C\C/C=C\C/C=C\C/C=C\C/C=C\C/C=C\CCC(=O)NS(=O)(=O)c1cc2c(s1)S(=O)(=O)[C@@H](C)C[C@@H]2NCC` [Compound 80-3, (4S,6S)-4-Ethylamino-6-methyl-7,7-dioxo-4,5,6,7-tetrahydro-7lambda*6*-thieno[2,3-b]thiopyran-2-sulfonic acid ((4Z,7Z,10Z,13Z,16Z,19Z)-docosa-4,7,10,13,16,19-hexanoyl)-amide], the solubility in data set [2] (organic solvent or mixture, Table 3B, DCM, read-out: Solubility DCM) was more than 50 mg/mL; in data set [2] (setting [6]), more than 100 mg/mL; in data set [2] (setting [7]), less than 1 mg/mL.
`CC/C=C\C/C=C\C/C=C\C/C=C\C/C=C\C/C=C\CCC(=O)O[C@@H](C)C(=O)O[C@@H](C)C(=O)O[C@H](COc1nsnc1N1CCOCC1)CN(C(C)=O)C(C)(C)C` [Compound 102-1, N-acyl-Timolol-PLA (n=2)-DHA]: the “degradation kinetics / hydrolysis to parent, in words” value in data set [1] (PBS (pH 7) with 10% DMSO, RP-HPLC) was “steady generation of intermediate degradants and slow hydrolysis to the parent compound; also recorded: steady generation of the intermediate N-acyl-Timolol-PLA (n=1)-DHA and slow hydrolysis to parent Timolol”.
Regarding Brinzolamide (n = 1), the “Solubility DCM” value in data set [2] (Table 3B, DCM) is given as more than 50 mg/mL. Moreover, the “Solubility DMSO” value in data set [2] (Table 3B, DMSO) was more than 50 mg/mL. Moreover, the “Solubility Water” value in data set [2] (setting [5]) is given as more than 50 mg/mL.
On to `CCN(Cc1cccc(OC)c1)C(=O)Nc1ccc(-c2cn[nH]c2)cc1OCCN1CCCC1` [RKI-1y, 3-(4-(1H-pyrazol-4-yl)-2-(2-(pyrrolidin-1-yl)ethoxy)phenyl)-1-ethyl-1-(3-methoxybenzyl)urea, reference compound], for which the solubility is more than 100 mg/mL in data set [2] (setting [6]) and less than 1 mg/mL in data set [2] (setting [7]).
`CCN[C@H]1C[C@H](C)S(=O)(=O)c2sc(S(=O)(=O)NC(=O)[C@H](C)O)cc21` [Dorzolamide-PLA (n = 1), dorzolamide-PLA (n=1)]: the “Solubility DMSO” value in data set [2] (Table 3A, DMSO) is on record as less than 1.0 mg/mL. The “Solubility Water” value in data set [2] (Table 3A, water, drug added to 50 mg/mL) is recorded as more than 50 mg/mL.
`CC(=O)O[C@@H](C)C(=O)O[C@@H](C)C(=O)N1CCN(C(C)=O)C1=Nc1ccc2nccnc2c1Br` [Compound 114-4, Brimonidine-acetyl PLA(n=2)-N-Acetate]: the figures for the solubility in data set [2] (setting [3]) and in data set [2] (setting [4]) were 100 mg/mL (≈ 192 mM) and 1 mg/mL (≈ 1.92 mM), respectively.
Turning to `CCCCCCCCCCCCCCCCCC(=O)O[C@@H](C)C(=O)O[C@@H](C)C(=O)O[C@H](COc1nsnc1N1CCOCC1)CN(C(C)=O)C(C)(C)C` [Compound 66-1, N-Acyl-Timolol-PLA (n = 2) Stearate], the solubility in data set [2] (setting [6]) was more than 100 mg/mL; in data set [2] (setting [7]) it was less than 1 mg/mL.
In the case of `CC(=O)O[C@@H](CNC(C)(C)C)COc1nsnc1N1CCOCC1.O=C(O)/C=C\C(=O)O` [Compound 35-4, Acetic acid (S)-1-(tert-butylamino-methyl)-2-(4-morpholin-4-yl-[1,2,5]thiadiazol-3-yloxy)-ethyl ester maleate], the solubility in data set [2] (setting [3]) was more than 50 mg/mL; in data set [2] (setting [4]), less than 1 mg/mL.
In the case of `CC(=O)OC(C)C(=O)OC(C)C(=O)OC(C)C(=O)OC(C)C(=O)N(C[C@@H](COc1nsnc1N1CCOCC1)OC(=O)C(C)OC(=O)C(C)OC(C)=O)C(C)(C)C` (some centres unmarked) [Compound 229, Timolol-bis-N-acetyl-PLA(n=4)-O-acetyl PLA(n=2)], the solubility is more than 50 mg/mL in data set [2] (setting [6]) and less than 0.006 mg/mL in data set [2] (setting [7]).
Regarding `CC(=O)O[C@H](C)C(=O)O[C@@H](CNC(C)(C)C)COc1nsnc1N1CCOCC1.O=C(O)/C=C\C(=O)O` [Compound 44-2, Timolol-acetyl PLA (n=1) maleate], the solubility is more than 50 mg/mL in data set [2] (setting [3]) and less than 1 mg/mL in data set [2] (setting [4]).
